Experiment [1] concerns carrageenin induced oedema in rat paws. Nature of the experiment: carrageenin induced oedema in rat paws. It is filed as in vivo. The note with it: dosed orally at 100 mg/kg. From the text:
A specific known indazolone of formula I which is of particular interest as an inhibitor of 5-LO is, for example, 1,2-dihydro-2-benzylindazol-3-one.

The test system is the same in experiment [2]. The note with it: J. Heterocyclic Chemistry, 1970, 7, 815-820; cited from earlier work.
For experiment [3], the target named is T1, 5-LO isolated from guinea pig neutrophils (Cavia porcellus, UniProt A0A286X958).
T1 construct: 5-LO isolated from guinea pig neutrophils; from tissue; host or cells: guinea pig neutrophils
T1 sequence (A0A286X958 1-674): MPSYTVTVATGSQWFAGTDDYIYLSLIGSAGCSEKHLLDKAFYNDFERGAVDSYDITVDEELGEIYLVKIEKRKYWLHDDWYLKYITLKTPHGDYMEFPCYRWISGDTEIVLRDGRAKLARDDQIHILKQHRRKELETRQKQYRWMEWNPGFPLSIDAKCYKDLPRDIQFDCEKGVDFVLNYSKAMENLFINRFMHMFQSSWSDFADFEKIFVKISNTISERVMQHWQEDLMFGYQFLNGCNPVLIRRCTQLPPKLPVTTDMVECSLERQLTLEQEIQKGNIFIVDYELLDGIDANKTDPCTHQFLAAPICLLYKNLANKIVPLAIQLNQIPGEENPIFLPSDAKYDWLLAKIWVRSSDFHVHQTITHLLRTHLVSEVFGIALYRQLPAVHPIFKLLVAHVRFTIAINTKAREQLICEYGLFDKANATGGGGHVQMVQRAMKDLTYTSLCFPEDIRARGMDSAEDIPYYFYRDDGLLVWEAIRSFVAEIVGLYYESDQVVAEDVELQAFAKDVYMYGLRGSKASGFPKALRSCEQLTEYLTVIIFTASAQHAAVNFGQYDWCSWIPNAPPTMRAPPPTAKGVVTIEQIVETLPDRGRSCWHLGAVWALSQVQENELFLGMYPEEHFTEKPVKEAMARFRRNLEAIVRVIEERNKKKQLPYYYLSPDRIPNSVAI
Nature of the experiment: Test (a): in vitro spectrophotometric enzyme assay, cell free system, 5-LO isolated from guinea pig neutrophils. It is filed as biochemical. The text has this: a) An in vitro spectrophotometric enzyme assay system, which assesses the inhibitory properties of a test compound in a cell free system using 5-LO isolated from guinea pig neutrophils and as described by D. Aharony and R. L. Stein (J. Biol. Chem., 1986, 261(25), 11512-11519). This test provides a measure of the intrinsic inhibitory properties against soluble 5-LO in an extracellular environment.

The target of experiment [4] is T2, 5-LO (Rattus norvegicus, UniProt P12527).
T2 construct: challenge with A23187 and radioimmunoassay of LTB4 and PGE2; endogenous in cells; host or cells: blood collected after oral dosing, heparinised
T2 sequence (P12527 1-673): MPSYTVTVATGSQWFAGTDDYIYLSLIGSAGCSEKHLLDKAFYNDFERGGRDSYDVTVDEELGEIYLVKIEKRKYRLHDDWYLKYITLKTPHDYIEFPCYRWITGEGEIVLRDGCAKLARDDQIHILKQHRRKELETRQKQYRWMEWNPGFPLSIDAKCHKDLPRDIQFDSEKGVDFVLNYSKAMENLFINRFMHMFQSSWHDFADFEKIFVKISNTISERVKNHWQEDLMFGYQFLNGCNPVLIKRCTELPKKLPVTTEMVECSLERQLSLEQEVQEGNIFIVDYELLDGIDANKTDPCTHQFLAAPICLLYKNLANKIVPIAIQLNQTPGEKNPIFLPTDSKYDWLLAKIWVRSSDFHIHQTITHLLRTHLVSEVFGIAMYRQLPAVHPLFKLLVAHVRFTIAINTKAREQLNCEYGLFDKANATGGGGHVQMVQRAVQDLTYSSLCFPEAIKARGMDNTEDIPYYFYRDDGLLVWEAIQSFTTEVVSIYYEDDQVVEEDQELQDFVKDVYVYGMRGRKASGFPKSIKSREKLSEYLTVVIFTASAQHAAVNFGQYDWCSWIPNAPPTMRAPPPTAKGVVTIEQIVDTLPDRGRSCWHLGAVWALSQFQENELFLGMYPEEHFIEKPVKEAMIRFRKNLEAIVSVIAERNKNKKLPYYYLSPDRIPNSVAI
The experiment is described as follows: Test (b): in vitro heparinised rat blood, A23187 challenge, LTB4 radioimmunoassay (5-LO). In kind it is cell-based. The method, then:
(§1) b) An in vitro assay system involving incubating a test compound with heparinised rat blood, prior to challenge with the calcium ionophore A23187 and then indirectly measuring the inhibitory effects on 5-LO by assaying the amount of LTB4 using the specific radioimmunoassay described by Carey and Forder (F. Carey and R. A. Forder, Brit. J. Pharmacol. 1985, 84, 34P) which involves the use of a protein-LTB4 conjugate produced using the procedure of Young et alia (Prostaglandins, 1983, 26(4), 605-613). The effects of a test compound on the enzyme cyclooxygenase (which is involved in the alternative metabolic pathway for arachidonic acid and gives rise to prostaglandins, thromboxanes and related metabolites) may be measured at the same time using the specific radioimmunoassay for prostaglandin E2 (PGE2) described by Carey and Forder (see above). This test provides an indication of the effects of a test compound against 5-LO and also cyclooxygenase in the presence of blood cells and proteins. It permits the selectivity of the inhibitory effect on 5-LO or cyclooxygenase to be assessed.

Experiment [5] has as its target T3, cyclooxygenase (Rattus norvegicus, UniProt Q63921).
T3 construct: incubating a test compound with heparinised rat blood; endogenous in cells; host or cells: heparinised rat blood (platelets and leukocytes)
T3 sequence (Q63921 27-602): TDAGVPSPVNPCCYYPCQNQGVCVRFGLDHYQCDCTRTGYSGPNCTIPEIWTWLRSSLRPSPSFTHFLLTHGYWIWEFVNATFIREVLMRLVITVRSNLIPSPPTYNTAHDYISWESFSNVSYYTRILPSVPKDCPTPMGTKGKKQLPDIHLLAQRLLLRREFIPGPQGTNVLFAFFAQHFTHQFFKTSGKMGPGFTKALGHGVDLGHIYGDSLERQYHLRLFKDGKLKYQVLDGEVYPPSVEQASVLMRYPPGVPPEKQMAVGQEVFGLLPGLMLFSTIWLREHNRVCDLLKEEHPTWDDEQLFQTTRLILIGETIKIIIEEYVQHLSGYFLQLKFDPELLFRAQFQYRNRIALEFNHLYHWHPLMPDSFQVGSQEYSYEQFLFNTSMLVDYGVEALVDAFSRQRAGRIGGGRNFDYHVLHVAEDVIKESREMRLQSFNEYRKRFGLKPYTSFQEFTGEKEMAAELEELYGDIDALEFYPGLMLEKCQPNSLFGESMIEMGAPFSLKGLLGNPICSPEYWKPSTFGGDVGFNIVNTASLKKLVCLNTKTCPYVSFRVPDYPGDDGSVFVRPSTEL
The experiment is described as follows: Test (b): in vitro heparinised rat blood, A23187 challenge, PGE2 radioimmunoassay (cyclooxygenase). In kind it is cell-based. On the procedure:
as §1

Experiment [6] addresses T2, 5-LO. Nature of the experiment: Test (c): ex vivo assay, oral dosing, blood A23187 challenge, LTB4 radioimmunoassay. In kind it is in vivo. On the procedure:
as §1
(§2) c) An ex vivo assay system, which is a variation of test (b) above, involving administration of a test compound (usually orally as a suspension in carboxymethylcellulose)blood collection, heparinisation, challenge with A23187 and radioimmunoassay of LTB4 and PGE2. […]

Experiment [7] has as its target T3, cyclooxygenase. Nature of the experiment: Test (c): ex vivo assay, oral dosing, blood A23187 challenge, PGE2 radioimmunoassay. In kind it is in vivo. On the procedure:
as §1, §2

As for `O=c1c2ccccc2[nH]n1Cc1ccccc1` [1,2-dihydro-2-benzylindazol-3-one], in experiment [1], the “significant effects in carrageenin induced oedema in rat paws” value is “unable to detect any significant effects”. Moreover, the “anti-inflammatory properties in carrageenin induced oedema in rat paws” value in experiment [2] was “weak anti-inflammatory properties”.

On to `O=c1c2ccccc2[nH]n1Cc1cccc2ccccc12` [Example 1, 1,2-dihydro-2-(1-naphthylmethyl)-3H-indazol-3-one], for which the values for the IC50 in experiment [3], in experiment [4] and in experiment [5] were 1.7 µM, 0.8 µM and 100 µM, respectively. Moreover, the 50% effect level in experiment [6] (ED50) was put at a dose of 30 mg/kg.

As to `O=c1c2ccccc2[nH]n1Cc1cccnc1` [Example 24], the half-inhibitory concentration (IC50) (as a rule, the concentration at which inhibition is half-maximal) in experiment [4] was below 5 µM; in experiment [5], above 100 µM. Besides, the ED50 (usually the dose that gives a 50% effect, or the effect in half of the subjects) in experiment [7] is above 100 mg/kg; in experiment [6], below 10 mg/kg.

The values above are taken from US5173496A, “Therapeutic preparations containing indazole derivatives” (ICI Pharma, priority 1987, dated 1992).
